Here are results for nine compounds from patent publication US20240208994A1, “PLASMA KALLIKREIN INHIBITORS” (Merck Sharp & Dohme LLC, priority 2021, published 2024).

One experiment concerns the target T1, Human plasma kallikrein (Homo sapiens, UniProt P03952).
T1 construct: yields a heavy chain (371 amino acids) and a light chain (248 amino acids); purchased Enzyme Research Laboratories
As to the kind of experiment: Plasma Kallikrein Assay. The class given is biochemical. To be noted: purified Human plasma kallikrein 0.5 nM, substrate Acetyl-K-P-R-AFC, HEPES pH 7.4, fluorescence 405 Ex/510 Em; read-out: PKal IC50. A digest of the protocol:
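Purified human plasma kallikrein (0.5 nM) with fluorogenic Acetyl-K-P-R-AFC at ≤0.2 Km in pH 7.4 HEPES with NaCl, CaCl2 and PEG 8000, after enzyme–inhibitor equilibration. Fluorescence read at 405/510 nm under linear conditions. IC50 from four-parameter fit; Ki by Cheng-Prusoff.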

Another experiment addresses human factor XIa (Homo sapiens, UniProt P03951). As to the kind of experiment: Factor XIa Assay. As to conditions: human factor XIa 0.04 nM, 30 min pre-incubation at 25° C., substrate GPR-AFC, pH 7.4, 60 min incubation; read-out: FXIa IC50. The class given is biochemical.

Molecules are shown by their SMILES. pIC50: −log10 of the molar value.

Chain of human factor XIa (P03951 388-625 limits assumed): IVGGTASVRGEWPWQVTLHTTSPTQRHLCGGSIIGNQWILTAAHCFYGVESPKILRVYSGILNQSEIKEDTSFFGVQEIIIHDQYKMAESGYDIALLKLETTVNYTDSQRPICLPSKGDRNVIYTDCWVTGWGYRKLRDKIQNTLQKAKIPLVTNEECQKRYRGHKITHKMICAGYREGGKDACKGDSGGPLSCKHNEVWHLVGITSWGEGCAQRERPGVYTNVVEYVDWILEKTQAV
Chain of human factor XIa (P03951 19-387 partner limits assumed): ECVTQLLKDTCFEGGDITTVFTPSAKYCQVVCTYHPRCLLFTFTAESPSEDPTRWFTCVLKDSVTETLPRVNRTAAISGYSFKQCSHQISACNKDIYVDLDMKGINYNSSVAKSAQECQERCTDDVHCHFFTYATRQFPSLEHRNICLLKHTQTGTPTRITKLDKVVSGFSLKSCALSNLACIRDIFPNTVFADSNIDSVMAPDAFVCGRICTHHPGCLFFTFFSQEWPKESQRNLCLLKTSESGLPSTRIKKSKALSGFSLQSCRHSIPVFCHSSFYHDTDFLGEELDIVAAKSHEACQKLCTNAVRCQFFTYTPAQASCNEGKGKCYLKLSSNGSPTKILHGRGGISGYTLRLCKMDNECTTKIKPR
T1 sequence (P03952 391-638 limits assumed): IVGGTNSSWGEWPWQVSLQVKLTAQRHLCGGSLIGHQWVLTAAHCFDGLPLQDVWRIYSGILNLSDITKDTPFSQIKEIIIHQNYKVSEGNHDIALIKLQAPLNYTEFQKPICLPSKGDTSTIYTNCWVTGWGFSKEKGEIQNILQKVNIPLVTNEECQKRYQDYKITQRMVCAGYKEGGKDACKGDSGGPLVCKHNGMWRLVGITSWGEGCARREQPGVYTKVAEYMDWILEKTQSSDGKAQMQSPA
T1 sequence (P03952 20-390 partner limits assumed): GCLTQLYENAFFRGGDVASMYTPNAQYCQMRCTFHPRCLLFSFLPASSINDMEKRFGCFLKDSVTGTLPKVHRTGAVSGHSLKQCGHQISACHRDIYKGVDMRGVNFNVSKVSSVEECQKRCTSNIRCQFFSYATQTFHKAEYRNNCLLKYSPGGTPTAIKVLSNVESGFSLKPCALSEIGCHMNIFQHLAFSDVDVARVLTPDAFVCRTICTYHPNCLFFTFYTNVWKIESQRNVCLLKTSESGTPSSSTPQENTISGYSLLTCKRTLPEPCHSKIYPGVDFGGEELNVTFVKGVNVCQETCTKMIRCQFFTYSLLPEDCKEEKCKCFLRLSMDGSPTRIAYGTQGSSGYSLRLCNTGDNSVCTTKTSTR

`Nc1cc(-c2c(F)cc(F)cc2F)nn1CC(=O)N1CC[C@@]2(C1)OC(=O)Nc1ccc(Cl)c(F)c12` [Example 59, (R)-1′-(2-(5-Amino-3-(2,4,6-trifluorophenyl)-1H-pyrazol-1-yl)acetyl)-6-chloro-5-fluorospiro[benzo[d][1,3]oxazine-4,3′-pyrrolidin]-2(1H)-one]: the pIC50 at Human plasma kallikrein was 8.43; at human factor XIa, 6.71.
For `Cc1cc(-c2cc(N)n(CC(=O)N3CC[C@@]4(C3)OC(=O)Nc3ccc(Cl)c(F)c34)n2)no1` [Example 60, (R)-1′-(2-(5-Amino-3-(5-methylisoxazol-3-y1)-1H-pyrazol-1-yl)acetyl)-6-chloro-5-fluorospiro[benzo[d][1,3]oxazine-4,3′-pyrrolidin]-2(1H)-one], in that order: 7.61 and 6.06.
Consider `Nc1cc(C2C3COCC32)nn1CC(=O)N1CC[C@@]2(C1)OC(=O)Nc1ccc(Cl)c(F)c12` (stereo partly drawn) [Example 61, (4R)-1′-(2-(5-Amino-3-(3-oxabicyclo[3.1.0]hexan-6-y1)-1H-pyrazol-1-yl)acetyl)-6-chloro-5-fluorospiro[benzo[d][1,3]oxazine-4,3′-pyrrolidin]-2(1H)-one], for which the pIC50 on Human plasma kallikrein is 7.57; at human factor XIa it was 6.10.
In the case of `COc1ccccc1-c1cc(N)n(CC(=O)N2CC[C@@]3(C2)OC(=O)Nc2ccc(Cl)c(F)c23)n1` [Example 62, (R)-1′-(2-(5-Amino-3-(2-methoxyphenyl)-1H-pyrazol-1-yl)acetyl)-6-chloro-5-fluorospiro[benzo[d][1,3]oxazine-4,3′-pyrrolidin]-2(1H)-one], the negative-log IC50 (pIC50) at Human plasma kallikrein was 8.18; at human factor XIa, 6.30.
For `N#Cc1ccc(-c2cc(N)n(CC(=O)N3CC[C@@]4(C3)OC(=O)Nc3ccc(Cl)c(F)c34)n2)cc1` [Example 63, (R)-4-(5-Amino-1-(2-(6-chloro-5-fluoro-2-oxo-1,2-dihydrospiro[benzo[d][1,3]oxazine-4,3′-pyrrolidin]-l′-xl)-2-oxoethyl)-1H-pyrazol-3-yl)benzonitrile], in that order: 7.86 and 6.21.
For `Nc1cc(-c2cccc(F)c2)nn1CC(=O)N1CC[C@@]2(C1)OC(=O)Nc1ccc(Cl)c(F)c12` [Example 64, (R)-1′-(2-(5-Amino-3-(3-fluorophenyl)-1H-pyrazol-1-yl)acetyl)-6-chloro-5-fluorospiro[benzo[d] [1,3]oxazine-4,3′-pyrrolidin]-2(1H)-one], in that order: 7.77 and 6.25.
With `Nc1cc(-c2ccc(Cl)cc2)nn1CC(=O)N1CC[C@@]2(C1)OC(=O)Nc1ccc(Cl)c(F)c12` [Example 65, (R)-1′-(2-(5-Amino-3-(4-chlorophenyl)-1H-pyrazol-1-yl)acetyl)-6-chloro-5-fluorospiro[benzo[d] [1,3]oxazine-4,3′-pyrrolidin]-2(1H)-one], the pIC50 on Human plasma kallikrein was 7.66; on human factor XIa, 5.81.
As to `Nc1cc(-c2ccc(OC(F)F)cc2)nn1CC(=O)N1CC[C@@]2(C1)OC(=O)Nc1ccc(Cl)c(F)c12` [Example 66, (R)-1′-(2-(5-Amino-3-(4-(difluoromethoxy)pheny1)-1H-pyrazol-1-yl)acetyl)-6-chloro-5-fluorospiro[benzo[d] [1,3]oxazine-4,3′-pyrrolidin]-2(1H)-one], the values for the pIC50 on Human plasma kallikrein and on human factor XIa were 7.99 and 6.19, respectively.
For `N#Cc1cccc(-c2cc(N)n(CC(=O)N3CC[C@@]4(C3)OC(=O)Nc3ccc(Cl)c(F)c34)n2)c1` [Example 67, (R)-3-(5-Amino-1-(2-(6-chloro-5-fluoro-2-oxo-1,2-dihydrospiro[benzo[d] [1,3]oxazine-4,3'-pyrrolidin]-1'-y1)-2-oxoethyl)-1H-pyrazol-3-y1)benzonitrile], in that order: 7.92 and 6.36.

For orientation: pIC50 means the IC50 on a negative log10 scale, so that one unit is a factor of ten.
